Experimental data: the supplement of paper PMC8882468

How the values were obtained:
Test in all cases: CTG-3D luminescence at 96 h relative to day-0 seeding control (ratio to day 0); higher = more growth / less cytotoxicity; PDxO 3D drug screen, 96 h, CTG-3D normalised to day-0 seeding control.
MDA-MB-231 = system: MDA-MB-231
HCI-002 = system: HCI-002 (organoid from a triple-negative breast cancer xenograft)
HCI-011.E2 = system: HCI-011.E2 (organoid from an ER-positive breast cancer xenograft)
HCI-023 = system: HCI-023 (organoid from a triple-negative breast cancer xenograft)
HCI-015 = system: HCI-015 (organoid from a triple-negative breast cancer xenograft)

CCN1CCN(Cc2ccc(Nc3ncc(F)c(-c4cc(F)c5nc(C)n(C(C)C)c5c4)n3)nc2)CC1 [abemaciclib]
CTG-3D luminescence at 96 h
Conditions	12.5 pM	0.00025 µM	0.005 µM	0.1 µM	1 µM	10 µM	100 µM	625 fM
HCI-011.E2	1.49	1.5	1.57	1.9	1.52	1.04	0.00535	1.6
MDA-MB-231	4.61	4.47	4.69	4.48	4.55	3.73	0.0487	4.67

CTG-3D luminescence at 96 h
Conditions	12.5 pM	0.00025 µM	0.005 µM	0.1 µM	1 µM	10 µM	100 µM	625 fM
HCI-002, days in culture: 62	2.66	2.58	3.14	1.73	1.79	0.212	0.0177	2.98
HCI-002, days in culture: 82	3.15	2.81	2.24	1.98	1.8	0.0326	0.0147	2.83
HCI-002, days in culture: 91	3.78	3.22	2.89	1.68	2.17	1.95	0.0268	3.9
HCI-002, days in culture: 191	2.72	2.89	3.01	1.89	2.34	0.748	0.018	2.57
HCI-002, days in culture: 209	2.24	2.35	2.4	1.36	1.49	0.0253	0.014	2.36
HCI-002, days in culture: 227	5.48	5.17	4.76	2.91	3.24	0.0659	0.0285	5.64
HCI-011.E2, days in culture: 74	1.84	2.83	2.59	2.7	2.61	1.72	0.00196	2.79
HCI-015, days in culture: 172	2.01	1.6	1.87	1.21	1.52	1.06	0.0103	1.19
HCI-015, days in culture: 191	1.17	1.4	1.23	1.15	1.45	1.09	0.0126	1.07
HCI-015, days in culture: 218	2.17	1.65	1.7	1.63	1.48	1.23	0.0151	1.79
HCI-023, days in culture: 111	1.62	1.22	1.3	1.11	0.658	0.377	0.00981	1.51
HCI-023, days in culture: 128	1.77	1.494	1.47	1.52	0.984	1.15	0.0139	1.84

CNC(=O)c1cccc(-c2ccc3c(N4CCOC[C@@H]4C)nc(N4CCOC[C@@H]4C)nc3n2)c1 [vistusertib]
CTG-3D luminescence at 96 h
Conditions	12.5 pM	0.00025 µM	0.005 µM	0.1 µM	1 µM	10 µM	100 µM	625 fM
HCI-011.E2	1.477	1.841	1.52	1.23	0.256	0.212	0.057	1.59
MDA-MB-231	4.58	4.53	4.66	4.35	3.31	2.7	1.9	4.64

CTG-3D luminescence at 96 h
Conditions	12.5 pM	0.00025 µM	0.005 µM	0.1 µM	1 µM	10 µM	100 µM	625 fM
HCI-002, days in culture: 62	2.66	2.61	3.41	2.32	1.07	0.702	0.277	2.99
HCI-002, days in culture: 82	3.06	2.8	2.5	2.33	1.07	0.582	0.259	2.63
HCI-002, days in culture: 91	3.62	3.61	3.38	2.8	1.19	0.884	0.482	3.86
HCI-002, days in culture: 191	2.7	2.8	3.06	2.32	1.41	0.774	0.426	2.78
HCI-002, days in culture: 209	2.32	2.49	2.32	2.03	0.917	0.345	0.219	2.62
HCI-002, days in culture: 227	5.65	5.55	5.27	3.89	1.39	1.12	0.394	5.47
HCI-011.E2, days in culture: 74	3.1	2.54	2.03	1	0.26	0.247	0.0598	2.38
HCI-015, days in culture: 172	2.36	1.61	2.07	0.997	0.995	0.545	0.36	2.7
HCI-015, days in culture: 191	1.84	1.24	1.54	0.827	0.859	0.436	0.329	1.43
HCI-015, days in culture: 218	2.16	1.84	2.09	1.41	0.874	0.543	0.305	2.18
HCI-023, days in culture: 111	1.41	1.27	1.29	1.09	0.468	0.406	0.242	1.5
HCI-023, days in culture: 128	1.83	1.59	1.44	1.27	0.78	0.864	0.541	1.7
